Measured values: the CheMixHub viscosity set

Experiment: xn = mol fraction of the nth substance listed

c1ccncc1 + CS(C)=O
viscosity [mPa·s], 101.3 kPa
Settings | 298.15 K | 308.15 K | 318.15 K
x1 = 0.041 | 1.859 | 1.535 | 1.246
x1 = 0.089 | 1.803 | 1.47 | 1.191
x1 = 0.18 | 1.6 | 1.318 | 1.098
x1 = 0.274 | 1.488 | 1.2 | 1.042
x1 = 0.369 | 1.38 | 1.13 | 0.972
x1 = 0.468 | 1.28 | 1.044 | 0.922
x1 = 0.569 | 1.185 | 0.984 | 0.858
x1 = 0.673 | 1.097 | 0.913 | 0.795
x1 = 0.779 | 1.029 | 0.849 | 0.753
x1 = 0.888 | 0.969 | 0.791 | 0.723
x1 = 0.943 | 0.975 | 0.76 | 0.715

CCCCCCCCCC(=O)O + CCCCCCCCCCCCCC
100 kPa, x2 = 0.8601
Settings | viscosity [mPa·s]
298.2 K | 2.37
308.2 K | 1.9
318.2 K | 1.54

O=C(Cl)c1ccccc1 + c1ccccc1
303.15 K, 101 kPa
Settings | viscosity [mPa·s]
x2 = 0.1255 | 1.176
x2 = 0.2441 | 1.108
x2 = 0.3564 | 1.04
x2 = 0.4627 | 0.9726
x2 = 0.5637 | 0.9048
x2 = 0.6596 | 0.8369
x2 = 0.7509 | 0.7688
x2 = 0.8379 | 0.7005
x2 = 0.9208 | 0.632

c1c[nH]cn1 + c1ccccc1
viscosity [mPa·s], 101 kPa
Settings | x1 = 0.003214 | x1 = 0.006433 | x1 = 0.01278 | x1 = 0.03561 | x1 = 0.03951
303.15 K | 0.57 | 0.578 | 0.595 | – | –
323.15 K | – | – | 0.457 | 0.505 | 0.513

c1ccncc1 + CCCO
101 kPa
Settings | viscosity [mPa·s]
303.15 K, x1 = 0.2999 | 1.165
303.15 K, x1 = 0.5 | 0.9865
308.15 K, x1 = 0.2999 | 1.065
313.15 K, x1 = 0.1001 | 1.205
323.15 K, x1 = 0.3998 | 0.7875

c1ccncc1 + OCC(O)CO
101 kPa
Settings | viscosity [mPa·s]
298.15 K, x1 = 0.6001 | 17.25
298.15 K, x1 = 0.8001 | 3.155
303.15 K, x1 = 0.4 | 66.75
308.15 K, x1 = 0.1 | 275.5
313.15 K, x1 = 0.2001 | 116.5
313.15 K, x1 = 0.4 | 36.35

CCCCCCC(C)O (configuration not stated) + Clc1ccccc1
viscosity [mPa·s], 101 kPa
Settings | 298.15 K | 303.15 K
x2 = 0.0637 | 5.573 | 4.507
x2 = 0.1236 | 4.736 | 3.906
x2 = 0.1894 | 3.906 | 3.291
x2 = 0.2474 | 3.319 | 2.818
x2 = 0.3131 | 2.772 | 2.369
x2 = 0.374 | 2.378 | 1.981
x2 = 0.4525 | 1.947 | 1.641
x2 = 0.5014 | 1.737 | 1.467
x2 = 0.5867 | 1.452 | 1.238
x2 = 0.6813 | 1.203 | 1.08
x2 = 0.7429 | 1.085 | 1
x2 = 0.8098 | 0.968 | 0.929
x2 = 0.8776 | 0.872 | 0.867
x2 = 0.9446 | 0.803 | 0.786

CCOC(=O)C(Br)CC (configuration not stated) + CCCCCC
303.15 K, 101 kPa
Settings | viscosity [mPa·s]
x1 = 0.1972 | 0.3726
x1 = 0.3889 | 0.5074
x1 = 0.4924 | 0.6029
x1 = 0.5981 | 0.7246
x1 = 0.7949 | 1.032

O=C(c1ccccc1)c1ccccc1 + CCCCCOC(C)=O
298.15 K, 101 kPa
Settings | viscosity [mPa·s]
x1 = 0.0417 | 0.8506
x1 = 0.0472 | 0.8646

CCCCCCCCCC(=O)O + CC(C)[C@@H]1CC[C@@H](C)C[C@H]1O
viscosity [mPa·s]
Settings | 293.15 K | 298 K | 298.15 K | 303.15 K | 308.15 K | 313.15 K | 318.15 K | 323.15 K
100 kPa, x1 = 0.333 | 28.37 | – | 21.15 | 16.15 | 12.59 | 10 | 8.08 | 6.63
100 kPa, x1 = 0.4 | 24.68 | – | 18.85 | 14.7 | 11.68 | 9.43 | 7.73 | 6.42
100 kPa, x1 = 0.5 | 22 | – | 17.5 | 13.5 | 11 | 9 | 7.5 | 6.3
101 kPa, x2 = 0.333 | – | 16.3 | – | – | – | – | – | –

NCCNCCNCCN + CC(C)(N)CO
viscosity [mPa·s], 101 kPa
Settings | x1 = 0.0971 | x1 = 0.2071 | x1 = 0.289 | x1 = 0.3787 | x1 = 0.4776 | x1 = 0.5872 | x1 = 0.7092 | x1 = 0.8458 | x1 = 0.9205
303.15 K | 93.54 | 86.24 | 80.73 | 74.33 | 67.05 | 58.76 | 49.22 | 38.21 | 32.14
313.15 K | 45.15 | 42.38 | 40.21 | 37.61 | 34.58 | 30.81 | 26.45 | 21.3 | 18.55
323.15 K | 23.64 | 22.83 | 22.02 | 20.95 | 19.54 | 17.81 | 15.76 | 13.05 | 11.61

CC(O)CCO (configuration not stated) + O=C1CCCN1
Settings | viscosity [mPa·s]
308.15 K, 101 kPa, x2 = 0.7935 | 11.85
